Measurements from PubChem BioAssay AID1259407 (Chemical Carcinogenesis Research Information System (CCRIS), 2018).
Activity calls are given as the source filed them. No rule for the calls is given here.

Tested on: CCRIS mutagenicity, Ames/micronucleus/aberration tests
Experiment: CCRIS mutagenicity studies
[1] = Test System: AMES SALMONELLA TYPHIMURIUM, Strain/Indicator: TA98, Metabolic Activation: NONE, Method: PREINCUBATION
[2] = Test System: AMES SALMONELLA TYPHIMURIUM, Strain/Indicator: TA100, Metabolic Activation: NONE, Method: PREINCUBATION
[3] = Test System: AMES SALMONELLA TYPHIMURIUM, Strain/Indicator: TA98, Metabolic Activation: NONE, Method: STANDARD PLATE
[4] = Test System: AMES SALMONELLA TYPHIMURIUM, Strain/Indicator: TA98, Metabolic Activation: RAT, LIVER, S-9, AROCLOR 1254, Method: STANDARD PLATE
[5] = Test System: AMES SALMONELLA TYPHIMURIUM, Strain/Indicator: TA100, Metabolic Activation: NONE, Method: STANDARD PLATE
[6] = Test System: AMES SALMONELLA TYPHIMURIUM, Strain/Indicator: TA100, Metabolic Activation: RAT, LIVER, S-9, AROCLOR 1254, Method: STANDARD PLATE

SMILES: [Na+]
- mutagenic call (Test System: AMES SALMONELLA TYPHIMURIUM, Strain/Indicator: TA97, Metabolic Activation: HAMSTER, LIVER, S-9, AROCLOR 1254 (10 OR 30%), Method: PREINCUBATION): inactive; negative
- mutagenic call (Test System: AMES SALMONELLA TYPHIMURIUM, Strain/Indicator: TA97, Metabolic Activation: NONE, Method: PREINCUBATION): inactive; negative
- mutagenic call (Test System: AMES SALMONELLA TYPHIMURIUM, Strain/Indicator: TA97, Metabolic Activation: RAT, LIVER, S-9, AROCLOR 1254 (10 OR 30%), Method: PREINCUBATION): inactive; negative
- mutagenic call (Test System: AMES SALMONELLA TYPHIMURIUM, Strain/Indicator: TA98, Metabolic Activation: HAMSTER, LIVER, S-9, AROCLOR 1254 (10 OR 30%), Method: PREINCUBATION): inactive; negative
- mutagenic call [1]: inactive; negative
- mutagenic call (Test System: AMES SALMONELLA TYPHIMURIUM, Strain/Indicator: TA98, Metabolic Activation: RAT, LIVER, S-9, AROCLOR 1254 (10 OR 30%), Method: PREINCUBATION): inactive; negative
- mutagenic call (Test System: AMES SALMONELLA TYPHIMURIUM, Strain/Indicator: TA100, Metabolic Activation: HAMSTER, LIVER, S-9, AROCLOR 1254 (10 OR 30%), Method: PREINCUBATION): inactive; negative
- mutagenic call [2]: inactive; negative
- mutagenic call (Test System: AMES SALMONELLA TYPHIMURIUM, Strain/Indicator: TA100, Metabolic Activation: RAT, LIVER, S-9, AROCLOR 1254 (10 OR 30%), Method: PREINCUBATION): inactive; negative
- mutagenic call (Test System: AMES SALMONELLA TYPHIMURIUM, Strain/Indicator: TA1535, Metabolic Activation: HAMSTER, LIVER, S-9, AROCLOR 1254 (10 OR 30%), Method: PREINCUBATION): inactive; negative
- mutagenic call (Test System: AMES SALMONELLA TYPHIMURIUM, Strain/Indicator: TA1535, Metabolic Activation: NONE, Method: PREINCUBATION): inactive; negative
- mutagenic call (Test System: AMES SALMONELLA TYPHIMURIUM, Strain/Indicator: TA1535, Metabolic Activation: RAT, LIVER, S-9, AROCLOR 1254 (10 OR 30%), Method: PREINCUBATION): inactive; negative
- mutagenic call (Test System: AMES SALMONELLA TYPHIMURIUM, Strain/Indicator: TA1537, Metabolic Activation: HAMSTER, LIVER, S-9, AROCLOR 1254 (30%), Method: PREINCUBATION): inactive; negative
- mutagenic call (Test System: AMES SALMONELLA TYPHIMURIUM, Strain/Indicator: TA1537, Metabolic Activation: NONE, Method: PREINCUBATION): inactive; negative
- mutagenic call (Test System: AMES SALMONELLA TYPHIMURIUM, Strain/Indicator: TA1537, Metabolic Activation: RAT, LIVER, S-9, AROCLOR 1254 (30%), Method: PREINCUBATION): inactive; negative
- mutagenic call (Test System: CHINESE HAMSTER OVARY, Strain/Indicator: CHO-K1-BH4 (HGPRT), Metabolic Activation: NONE, Method: SUSPENSION/PLATE): inactive; negative
- mutagenic call (Test System: CHINESE HAMSTER OVARY, Strain/Indicator: CHO-K1-BH4 (HGPRT), Metabolic Activation: RAT, LIVER, S-9, AROCLOR, Method: SUSPENSION/PLATE): inactive; negative
- mutagenic call (Test System: MOUSE LYMPHOMA, Strain/Indicator: L5178Y (TK+/TK-), Metabolic Activation: NONE, Method: SUSPENSION/PLATE): active; positive

SMILES: O=[N+]([O-])c1ccc2ccc3cc4c(c5ccc1c2c35)CCC=C4
- mutagenic call (Test System: AMES SALMONELLA TYPHIMURIUM, Strain/Indicator: TA98 (1,8-DNP6), Metabolic Activation: RAT, LIVER, S-9, AROCLOR 1254, Method: STANDARD PLATE): active; positive
- mutagenic call (Test System: AMES SALMONELLA TYPHIMURIUM, Strain/Indicator: TA98(NR), Metabolic Activation: RAT, LIVER, S-9, AROCLOR 1254, Method: STANDARD PLATE): active; positive
- mutagenic call [3]: active; positive
- mutagenic call [4]: active; positive
- mutagenic call [5]: active; positive
- mutagenic call [6]: active; positive

SMILES: Cc1ccc2c(C)c3ccc4ccccc4c3nc2c1
- mutagenic call (Test System: AMES SALMONELLA TYPHIMURIUM, Strain/Indicator: TA97A, Metabolic Activation: NONE, Method: PREINCUBATION): active; positive
- mutagenic call [1]: active; positive
- mutagenic call [2]: active; positive
- mutagenic call [6]: active; positive
- mutagenic call (Test System: AMES SALMONELLA TYPHIMURIUM, Strain/Indicator: TA102, Metabolic Activation: NONE, Method: PREINCUBATION): active; positive

SMILES: O=[N+]([O-])c1ccc2c3c(c4cccc5ccc1c2c54)CCCC3
- mutagenic call [3]: active; positive
- mutagenic call [4]: active; positive

SMILES: O=C1Nc2cc3ccccc3c3c4c(cc1c23)OCO4
- mutagenic call [5]: inactive; negative
- mutagenic call [6]: active; positive
- mutagenic call (Test System: AMES SALMONELLA TYPHIMURIUM, Strain/Indicator: TA1537, Metabolic Activation: NONE, Method: STANDARD PLATE): inactive; negative
- mutagenic call (Test System: AMES SALMONELLA TYPHIMURIUM, Strain/Indicator: TA1537, Metabolic Activation: RAT, LIVER, S-9, AROCLOR 1254, Method: STANDARD PLATE): active; positive
